The source of these data is ChEMBL document CHEMBL1201862, “PubChem BioAssay data set” (2004).

Each structure is given as a SMILES string.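 Following 48 hours of exposure in 96-well plates, responses at five concentrations were used to interpolate endpoints linearly. GI50 is the concentration that inhibits growth by half.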 Calls of active or inactive are those of the source. Rule as the data show it: active = GI50 up to about 1.1 µM and inactive = higher. Where a SMILES comes first, the peptide text is derived from it. [ ]: non-standard residue; d: D form. The star is where a group is joined. ξ: configuration not given here. ξD = NC(CC(=O)O)C(=O)O; Boc = CC(C)(C)OC(=O)*; Aib = CC(C)(N)C(=O)O; OBn = c1ccc(CO*)cc1

Holding throughout (experiment): NCI tumour cell line growth inhibition, 48 h
Assay [1] relates to OVCAR-3.
The test system of assay [2] is TK-10.
The subject of assay [3] is OVCAR-5.
In assay [4] the test system is OVCAR-4.
The test system of assay [5] is UACC-257.
The subject of assay [6] is HT-29.
Assay [7] has as its system SF-295.
Assay [8] relates to Malme-3M.
Assay [9] deals with Hs-578T.
Assay [10] deals with OVCAR-8.
Assay [11] relates to SN12C.
For assay [12], the system named is HOP-92.
For assay [13], the system named is HCT-116.
In assay [14] the test system is NCI/ADR-RES.
Assay [15] concerns HL-60.
Assay [16] relates to IGROV-1.
The subject of assay [17] is MCF7.
The subject of assay [18] is SK-MEL-28.
Assay [19] relates to NCI-H226.

For `CC(C)(C)OC(=O)N1CCC(C(=O)O)CC1`, the GI50 in assay [1], in [2], in assay [3], in [4], in assay [5] and in assay [6] was > 100 µM (inactive) each time. Also, the GI50 in [7], in assay [8], in assay [9], in assay [10], in assay [11] and in assay [12] was > 100 µM (inactive) throughout. Besides, the GI50 in assay [13], in assay [14], in assay [15], in assay [16], in assay [17] and in [18] was > 100 µM (inactive) each time.
As to `O=[N+]([O-])c1ccc(/C=N/n2c(S)nnc2CCc2nnc(S)n2/N=C/c2ccc([N+](=O)[O-])o2)o1`, the GI50 is 24.6 µM (inactive) in assay [1]; 84.1 µM (inactive) in assay [2]; > 100 µM (inactive) in [3]; 19.3 µM (inactive) in [4]; > 100 µM (inactive) in assay [19]; 22.4 µM (inactive) in assay [5]. For the same molecule, the GI50 is 29.3 µM (inactive) in assay [6]; > 100 µM (inactive) in assay [7]; 25.5 µM (inactive) in [9]; 31.9 µM (inactive) in assay [10]; 17.2 µM (inactive) in assay [12]; 15.3 µM (inactive) in assay [13]. Also, the GI50 is 23.8 µM (inactive) in assay [14]; 33.6 µM (inactive) in assay [15]; 44.3 µM (inactive) in assay [16]; 18.1 µM (inactive) in [17]; 16.6 µM (inactive) in [18].
`C[C@H](CCC(=O)O[C@@H]1CC[C@@]2(C)C(CC[C@H]3[C@@H]4CC[C@H]([C@H](C)CCc5nc6ccccc6[nH]5)[C@@]4(C)CC[C@@H]32)C1)[C@H]1CC[C@H]2[C@@H]3CCC4C[C@H](O)CC[C@]4(C)[C@H]3CC[C@]12C` (stereo partly drawn): the GI50 was > 100 µM (inactive) in [1]; > 100 µM (inactive) in [2]; > 100 µM (inactive) in [3]; 0.501 µM (active) in assay [4]; > 100 µM (inactive) in assay [19]; > 100 µM (inactive) in assay [5]. The GI50 in assay [6] was > 57.5 µM (inactive); in [7] it was 16.7 µM (inactive); in [9], 0.494 µM (active); in [10] it was 20.2 µM (inactive); in [11], > 100 µM (inactive); in assay [12] it was > 100 µM (inactive). Further, the GI50 in assay [13] was > 100 µM (inactive); in assay [14], > 100 µM (inactive); in [15] it was > 100 µM (inactive); in assay [16], 1.33 µM (inactive); in assay [17], 6.34 µM (inactive); in [18], > 100 µM (inactive).
`CCc1ccc2oc(=O)ccc2c1`: the GI50 in [1], in assay [3], in [4], in assay [19], in assay [5] and in [6] was > 100 µM (inactive) throughout. Moreover, the GI50 in assay [7], in assay [8], in [9], in assay [10], in assay [11] and in assay [12] was > 100 µM (inactive) throughout. In addition, the GI50 was > 100 µM (inactive) in assay [13]; > 100 µM (inactive) in [14]; 42.5 µM (inactive) in assay [15]; > 100 µM (inactive) in [16]; > 100 µM (inactive) in assay [17]; > 100 µM (inactive) in assay [18].
On to `c1ccc(-c2cc(-c3cccs3)c(-c3cccs3)o2)cc1`, for which the GI50 was 61.1 µM (inactive) in [1]; > 100 µM (inactive) in assay [2]; > 100 µM (inactive) in assay [3]; > 100 µM (inactive) in assay [4]; > 100 µM (inactive) in assay [19]; > 100 µM (inactive) in assay [5]. Also, the GI50 in assay [6], in assay [7], in assay [9], in assay [10], in [11] and in [12] was > 100 µM (inactive) in each case. Besides, the GI50 in assay [13] was 50.7 µM (inactive); in assay [14], > 100 µM (inactive); in assay [15], > 100 µM (inactive); in [16] it was > 100 µM (inactive); in assay [17], 32.2 µM (inactive); in assay [18], > 100 µM (inactive).
With `Cn1ccnc1S/C(=C\C=C(C#N)C#N)c1ccc(Cl)cc1`, the GI50 in [1] is 2.22 µM (inactive); in [2] it was 0.492 µM (active); in assay [3], 2.31 µM (inactive); in [4] it was 4.09 µM (inactive); in assay [5] it was 2.1 µM (inactive); in assay [6], 1.67 µM (inactive). Further, the GI50 was 2.87 µM (inactive) in assay [7]; 1.04 µM (active) in assay [8]; 4.38 µM (inactive) in assay [9]; 1.12 µM (active) in assay [10]; 1.09 µM (active) in [11]; 1.31 µM (inactive) in assay [12]. Moreover, the GI50 in assay [13] is 0.324 µM (active); in [14], 2.22 µM (inactive); in assay [15], 0.461 µM (active); in [16], 2.69 µM (inactive); in assay [17] it was 0.698 µM (active); in assay [18] it was 4.06 µM (inactive).
Regarding `CC(=O)Nc1cc2nc3n(c2cc1C)CCC3OC(C)=O` (stereo not drawn), the GI50 in assay [1], in [3], in [4], in assay [19], in assay [5] and in assay [6] was > 100 µM (inactive) each time. Besides, the GI50 in [7], in assay [8], in [9], in assay [10], in [11] and in assay [12] was > 100 µM (inactive) throughout. For the same molecule, the GI50 in assay [13], in assay [14], in assay [15], in assay [16], in [17] and in [18] was > 100 µM (inactive) each time.
Take `CC(C)(C)OC(=O)NC(CC(=O)OCc1ccccc1)C(=O)NC(C)(C)C(N)=O` (stereo not drawn) (Boc-[ξD](OBn)-[Aib]-NH2): the GI50 in assay [1], in [2], in [3], in assay [4], in assay [19] and in assay [5] was > 100 µM (inactive) in each case. Further, the GI50 in [6], in assay [7], in assay [8], in assay [9], in assay [10] and in [11] was > 100 µM (inactive) in each case. The GI50 in assay [12], in assay [13], in assay [14], in [16], in assay [17] and in assay [18] was > 100 µM (inactive) throughout.
